Experimental data as given in patent publication US8603527B2, “Pharmaceutical formulations of a substituted diaminopurine” (Signal Pharmaceuticals, LLC, priority 2010, dated 2013).
Like-named read-outs stand apart in the source and are kept apart here.

Experiments:
[1] = system: time-mated female CD [Crl:CD(SD)] rats; test: Oral developmental toxicity study in the rat; assay type: in vivo
Procedure: (§1) Compound I was administered orally to four groups of 25 time-mated female CD®[Crl:CD®(SD)] rats/group at dose levels of 0 (vehicle, 1.0% carboxymethylcellulose/0.25% TWEEN® 80), 25, 50, or 100 mg/kg/day from Gestation Days (GD) 6 to 17. In addition, four groups of five time-mated females/group served as toxicokinetic (TK) animals and received the vehicle or test article in the same manner as the main study groups.

[2] = Oral developmental toxicity study in the rat; assay type: in vivo; conditions: female, CD [Crl:CD(SD)], rat, in vivo, oral; rats; read-out: NOAEL for maternal toxicity
Procedure: as §1

[3] = Pharmacokinetics (plasma and urine) of ascending multiple oral doses in healthy volunteers; assay type: in vivo, human; conditions: for Ae (amount of drug excreted in urine) / fe (percentage of dose excreted in urine) / CL/F / RA (ratio of accumulation) / Vd/F / half-life: geometric mean; for CL/F / RA (ratio of accumulation) / Vd/F / half-life: Day 14, plasma (N = 8); for Intra-subject CV % of AUC(0-τ) / Intra-subject CV % of Cmax: ANOVA, data from Days 10 and 14; for Vd/F / half-life: both sexes, human, oral; for Vd/F: read-out: Vz/F; for half-life: read-out: t1/2 (converted)
Excerpt: Subjects: Forty healthy male and female subjects between the ages of 20 and 50 were enrolled in the study. All subjects were in good health as determined by a medical history, physical examination, 12-lead ECG, serum biochemistry, hematology, urinalysis and virology. Subjects were not permitted to take any prescribed medication within 30 days or non-prescribed medication within 7 days of the first dose administration.
Study Design: This study was a randomized, double-blind, placebo-controlled, ascending-dose trial to evaluate the safety, tolerability and pharmacokinetics (PK) of multiple oral doses of Compound I. Subjects were enrolled into 1 of the 4 cohorts, 10 subjects per cohort (active:placebo=8:2). Subjects received a multiple oral dose of 25, 50, 100, or 200 mg unformulated Compound I in a capsule, or matching placebo, once daily (QD) for 14 days.
Assessments: Safety and tolerability were assessed by adverse event (AE) monitoring, clinical laboratory testing, vital sign measurement, 12-lead ECG measurement, concomitant medication assessment, and physical examination. Blood and urine samples were collected to assess the PK profile of Compound I and the S-cis isomer of Compound I. Blood samples (˜5 mL) for plasma PK analysis were collected in K2-EDTA vacutainer tubes to yield approximately 2 mL of plasma at each of the following time points: (i) Day 1: before dosing, and 0.25, 0.5, 1, 1.5, 2, 2.5, 3, 4, 6, 8, 10, 12, 16, and 24 hours after dosing; (ii) Day 3 to Day 9: before dosing; (iii) Day 10: before dosing, and 0.25, 0.5, 1, 1.5, 2, 2.5, 3, 4, 6, 8, 10, 12, and 16 hours after dosing; (iv) Day 11 to Day 13: before dosing; (v) Day 14: before dosing, and 0.25, 0.5, 1, 1.5, 2, 2.5, 3, 4, 6, 8, 10, 12, 16, 24, 48, 72, 96, 120, 144, and 168 hours after dosing. Urine samples for the PK analysis were collected as a single block at: (i) Day 1: before dosing (spot collection), 0 to 8, 8 to 16, and 16 to 24 hours after dosing; and (ii) Day 14: 0 to 8, 8 to 16, and 16 to 24 hours after dosing. Both plasma and urine concentrations of Compound I and its S-cis isomer were measured using validated liquid chromatography-tandem mass spectrometry (LC/MS/MS).
Data Analysis: Safety data were summarized using descriptive statistics by treatment. PK parameters for Compound I and its S-cis isomer were calculated using non-compartmental analysis using WinNonlin (Version 5.0.1 or greater; Pharsight Corporation, Mountain View, Calif.). Dose proportionality and dose independence were evaluated by visual inspection. Intra-subject variability was assessed using an ANOVA model using data from Days 10 and 14.

[4] = 25 mg QD, Day 14, urine (n = 8)
[5] = 50 mg QD, Day 14, urine (n = 8)
[6] = 100 mg QD, Day 1, urine (n = 8)
[7] = 100 mg QD, Day 14, urine (n = 8)
[8] = 200 mg QD, Day 1, urine (n = 8)
[9] = 200 mg QD, Day 14, urine (n = 8)

O[C@H]1CC[C@H](Nc2ncc3nc(Nc4c(F)cc(F)cc4F)n([C@H]4CCOC4)c3n2)CC1 [Compound I, 4-((9-((3S)-tetrahydro-3-furanyl)-8-((2,4,6-trifluorophenyl)amino)-9H-purin-2-yl)amino)-trans-cyclohexanol]
doses at which developmental effects were observed ([1]; female, CD [Crl:CD(SD)], rat, in vivo): > 25 mg/kg/day | teratogenicity ([1]; rat, in vivo): teratogenic | maternal toxicity ([1]; rat, in vivo, 25 mg/kg/day): No maternal toxicity | incidence of fetal malformations involving heart and aortic vessels, ribs, and/or vertebrae ([1]; rat, in vivo, 100 mg/kg/day): slight increase | post implantation loss index ([1]; rat, in vivo, 100 mg/kg/day): increased | fetal weights lower than controls ([1]; rat, in vivo, po, 25 mg/kg/day): about 6% | fetal body weights lower than controls ([1]; rat, in vivo, po, 50 mg/kg/day): about 11% | fetal body weights lower than controls ([1]; rat, in vivo, po, 100 mg/kg/day): ~27% | NOEL for developmental toxicity ([1]; rats): 25 mg/kg/day | lowest observed effect level (LOEL), developmental effects ([1]; rats): 25 mg/kg/day | NOAEL [2]: 25 mg/kg/day | Ae (amount of drug excreted in urine) ([3]; 25 mg QD, Day 1, urine (n = 8)): 1.3 mg | fe (percentage of dose excreted in urine) ([3]; 25 mg QD, Day 1, urine (n = 8)): 5.2% | CL/F ([3]; 25 mg QD): 95 mL/min | RA (ratio of accumulation) ([3]; 25 mg QD): 1.9 | Ae (amount of drug excreted in urine) [3, 4]: 3.5 mg | fe (percentage of dose excreted in urine) [3, 4]: 14.0% | Intra-subject CV % of AUC(0-τ) ([3]; 25 mg QD): 7.0% | Intra-subject CV % of Cmax ([3]; 25 mg QD): 10.2% | Ae (amount of drug excreted in urine) ([3]; 50 mg QD, Day 1, urine (n = 8)): 3.0 mg | fe (percentage of dose excreted in urine) ([3]; 50 mg QD, Day 1, urine (n = 8)): 5.9% | CL/F ([3]; 50 mg QD): 85 mL/min | RA (ratio of accumulation) ([3]; 50 mg QD): 2.2 | Ae (amount of drug excreted in urine) [3, 5]: 6.9 mg | fe (percentage of dose excreted in urine) [3, 5]: 13.9% | Intra-subject CV % of AUC(0-τ) ([3]; 50 mg QD): 8.4% | Intra-subject CV % of Cmax ([3]; 50 mg QD): 5.7% | Ae (amount of drug excreted in urine) [3, 6]: 5.3 mg | fe (percentage of dose excreted in urine) [3, 6]: 5.3% | CL/F ([3]; 100 mg QD): 130 mL/min | RA (ratio of accumulation) ([3]; 100 mg QD): 1.8 | Ae (amount of drug excreted in urine) [3, 7]: 11.9 mg | fe (percentage of dose excreted in urine) [3, 7]: 11.9% | Intra-subject CV % of AUC(0-τ) ([3]; 100 mg QD): 15.7% | Intra-subject CV % of Cmax ([3]; 100 mg QD): 23.7% | Ae (amount of drug excreted in urine) [3, 8]: 5.0 mg | fe (percentage of dose excreted in urine) [3, 8]: 2.5% | CL/F ([3]; 200 mg QD): 146 mL/min | RA (ratio of accumulation) ([3]; 200 mg QD): 1.5 | Ae (amount of drug excreted in urine) [3, 9]: 11.7 mg | fe (percentage of dose excreted in urine) [3, 9]: 5.8% | Intra-subject CV % of AUC(0-τ) ([3]; 200 mg QD): 14.0% | Intra-subject CV % of Cmax ([3]; 200 mg QD): 18.3% | accumulation at steady state ([3]; Day 10 and Day 14, QD dosing): approximately 2 fold | intra-subject variability of AUCss,(0-τ) ([3]; Days 10 and 14): less than 20% | steady state reached (trough plasma concentrations) ([3]; QD dosing): 6 days | Vd/F ([3]; 25 mg QD): 256 L | half-life ([3]; 25 mg QD): 31 h | Vd/F ([3]; 50 mg QD): 193 L | half-life ([3]; 50 mg QD): 26 h | Vd/F ([3]; 100 mg QD): 338 L | half-life ([3]; 100 mg QD): 30 h
